# From ChEMBL document CHEMBL3112450, “Synthesis and in vitro antitumor evaluation of primary amine substituted quinazoline linked benzimidazole” (Bioorg Med Chem Lett, 2014)
# Tests used:
# Type in all cases: functional
# [1] = Cytotoxicity against human OVCAR4 cells assessed as cell growth at 10^-7 M after 48 hrs by SRB assay; conditions: OVCAR-4, 48 h, read-out: Activity
# [2] = tested on: MOLT-4; experiment: Cytotoxicity against human MOLT4 cells after 48 hrs by SRB assay; conditions: MOLT-4, 48 h
# [3] = tested on: MDA-MB-468; experiment: Cytotoxicity against human MDA-MB-468 cells assessed as cell growth at 10^-4 M after 48 hrs by SRB assay; conditions: MDA-MB-468, 48 h, read-out: Activity
# [4] = tested on: RXF 393; experiment: Cytotoxicity against human RXF393 cells assessed as cell growth at 10^-4 M after 48 hrs by SRB assay; conditions: RXF 393, 48 h, read-out: Activity
# [5] = tested on: SNB-19; experiment: Cytotoxicity against human SNB19 cells assessed as cell growth at 10^-7 M after 48 hrs by SRB assay; conditions: SNB-19, 48 h, read-out: Activity
# [6] = tested on: SW-620; experiment: Cytotoxicity against human SW620 cells assessed as cell growth at 10^-7 M after 48 hrs by SRB assay; conditions: SW-620, 48 h, read-out: Activity
# [7] = tested on: HT-29; experiment: Cytotoxicity against human HT-29 cells assessed as cell growth at 10^-7 M after 48 hrs by SRB assay; conditions: HT-29, 48 h, read-out: Activity
# [8] = Cytotoxicity against human Hs578T cells assessed as cell growth at 10^-8 M after 48 hrs by SRB assay; conditions: Hs-578T, read-out: Activity
# [9] = Cytotoxicity against human UO31 cells assessed as cell growth at 10^-8 M after 48 hrs by SRB assay; conditions: UO-31, 48 h, read-out: Activity
# [10] = tested on: A498; experiment: Cytotoxicity against human A498 cells assessed as cell growth at 10^-4 M after 48 hrs by SRB assay; conditions: A498, 48 h, read-out: Activity
# [11] = tested on: OVCAR-8; experiment: Cytotoxicity against human OVCAR8 cells assessed as cell growth at 10^-4 M after 48 hrs by SRB assay; conditions: OVCAR-8, 48 h, read-out: Activity
# [12] = tested on: UACC-62; experiment: Cytotoxicity against human UACC62 cells assessed as cell growth at 10^-4 M after 48 hrs by SRB assay; conditions: UACC-62, 48 h, read-out: Activity
# [13] = tested on: U-251; experiment: Cytotoxicity against human U251 cells assessed as cell growth at 10^-4 M after 48 hrs by SRB assay; conditions: U-251, 48 h, read-out: Activity
# [14] = tested on: NCI-H522; experiment: Cytotoxicity against human NCI-H522 cells assessed as cell growth at 10^-4 M after 48 hrs by SRB assay; conditions: NCI-H522, 48 h, read-out: Activity
# [15] = tested on: NCI-H23; experiment: Cytotoxicity against human NCI-H23 cells assessed as cell growth at 10^-4 M after 48 hrs by SRB assay; conditions: NCI-H23, 48 h, read-out: Activity
# [16] = tested on: SR; experiment: Cytotoxicity against human SR cells assessed as cell growth at 10^-4 M after 48 hrs by SRB assay; conditions: read-out: Activity
# [17] = Cytotoxicity against human NCI-ADR-RES cells assessed as cell growth at 10^-8 M after 48 hrs by SRB assay; conditions: read-out: Activity
# [18] = tested on: SF-295; experiment: Cytotoxicity against human SF295 cells assessed as cell growth at 10^-8 M after 48 hrs by SRB assay; conditions: SF-295, 48 h, read-out: Activity
# [19] = tested on: SW-620; experiment: Cytotoxicity against human SW620 cells assessed as cell growth at 10^-8 M after 48 hrs by SRB assay; conditions: SW-620, 48 h, read-out: Activity
# [20] = tested on: COLO 205; experiment: Cytotoxicity against human COLO205 cells assessed as cell growth at 10^-8 M after 48 hrs by SRB assay; conditions: COLO 205, 48 h, read-out: Activity
# [21] = tested on: HOP-92; experiment: Cytotoxicity against human HOP92 cells assessed as cell growth at 10^-8 M after 48 hrs by SRB assay; conditions: HOP-92, 48 h, read-out: Activity
# [22] = tested on: HL-60(TB); experiment: Cytotoxicity against human HL-60(TB) cells assessed as cell growth at 10^-8 M after 48 hrs by SRB assay; conditions: HL-60, 48 h, read-out: Activity
# [23] = tested on: RXF 393; experiment: Cytotoxicity against human RXF393 cells after 48 hrs by SRB assay; conditions: RXF 393, 48 h
# [24] = tested on: A498; experiment: Cytotoxicity against human A498 cells after 48 hrs by SRB assay; conditions: A498, 48 h
# [25] = tested on: MDA-MB-435; experiment: Cytotoxicity against human MDA-MB-435 cells after 48 hrs by SRB assay; conditions: MDA-MB-435, 48 h
# [26] = tested on: Malme-3M; experiment: Cytotoxicity against human MALME-3M cells after 48 hrs by SRB assay
# [27] = tested on: HCT-116; experiment: Cytotoxicity against human HCT116 cells after 48 hrs by SRB assay; conditions: HCT-116, 48 h
# [28] = tested on: MDA-MB-468; experiment: Cytotoxicity against human MDA-MB-468 cells assessed as cell growth at 10^-6 M after 48 hrs by SRB assay; conditions: MDA-MB-468, 48 h, read-out: Activity
# [29] = tested on: MCF7; experiment: Cytotoxicity against human MCF7 cells assessed as cell growth at 10^-6 M after 48 hrs by SRB assay; conditions: MCF7, 48 h, read-out: Activity
# [30] = tested on: PC-3; experiment: Cytotoxicity against human PC3 cells assessed as cell growth at 10^-6 M after 48 hrs by SRB assay; conditions: PC-3, 48 h, read-out: Activity
# [31] = Cytotoxicity against human OVCAR4 cells assessed as cell growth at 10^-6 M after 48 hrs by SRB assay; conditions: OVCAR-4, 48 h, read-out: Activity
# [32] = tested on: UACC-62; experiment: Cytotoxicity against human UACC62 cells assessed as cell growth at 10^-6 M after 48 hrs by SRB assay; conditions: UACC-62, 48 h, read-out: Activity
# [33] = tested on: SK-MEL-28; experiment: Cytotoxicity against human SK-MEL-28 cells assessed as cell growth at 10^-6 M after 48 hrs by SRB assay; conditions: SK-MEL-28, 48 h, read-out: Activity
# [34] = tested on: MDA-MB-435; experiment: Cytotoxicity against human MDA-MB-435 cells assessed as cell growth at 10^-6 M after 48 hrs by SRB assay; conditions: MDA-MB-435, 48 h, read-out: Activity
# [35] = tested on: M14; experiment: Cytotoxicity against human M14 cells assessed as cell growth at 10^-6 M after 48 hrs by SRB assay; conditions: M14, 48 h, read-out: Activity
# [36] = tested on: LOX IMVI; experiment: Cytotoxicity against human LOXIMVI cells assessed as cell growth at 10^-6 M after 48 hrs by SRB assay; conditions: read-out: Activity
# [37] = tested on: HOP-62; experiment: Cytotoxicity against human HOP62 cells assessed as cell growth at 10^-6 M after 48 hrs by SRB assay; conditions: HOP-62, 48 h, read-out: Activity
# [38] = tested on: SR; experiment: Cytotoxicity against human SR cells assessed as cell growth at 10^-6 M after 48 hrs by SRB assay; conditions: read-out: Activity
# [39] = Cytotoxicity against human Hs578T cells assessed as cell growth at 10^-7 M after 48 hrs by SRB assay; conditions: Hs-578T, read-out: Activity
compound,measurement,setting,value
C=CCn1c(C)nc2ccc(Nc3nc(Nc4ccc5nc(C)n(CC=C)c5c4)c4ccccc4n3)cc21,growth at 0.1 µM,[1],95%
same,GI50,[2],1670 nM
same,LC50,[2],> 100 µM
same,growth at 100 µM,[3],-33%
same,growth at 100 µM,[4],-31%
same,growth at 0.1 µM,[5],92%
same,growth at 0.1 µM,[6],94%
same,growth at 0.1 µM,[7],101%
same,growth at 0.01 µM,[8],95%
same,growth at 0.01 µM,[9],84%
same,growth at 100 µM,[10],-21%
same,growth at 100 µM,[11],-18%
same,growth at 100 µM,[12],-65%
same,growth at 100 µM,[13],-22%
same,growth at 100 µM,[14],-15%
same,growth at 100 µM,[15],-42%
same,growth at 100 µM,[16],-2%
same,growth at 0.01 µM,[17],99%
same,growth at 0.01 µM,[18],94%
same,growth at 0.01 µM,[19],98%
same,growth at 0.01 µM,[20],105%
same,growth at 0.01 µM,[21],92%
same,growth at 0.01 µM,[22],97%
same,GI50,[23],1800 nM
same,TGI,[23],3.28 µM
same,GI50,[24],442 nM
same,TGI,[24],2080 nM
same,GI50,[25],1730 nM
same,TGI,[25],3.33 µM
same,GI50,[26],1900 nM
same,TGI,[26],3.68 µM
same,GI50,[27],1370 nM
same,growth at 1 µM,[28],64%
same,growth at 1 µM,[29],85%
same,growth at 1 µM,[30],71%
same,growth at 1 µM,[31],84%
same,growth at 1 µM,[32],86%
same,growth at 1 µM,[33],102%
same,growth at 1 µM,[34],92%
same,growth at 1 µM,[35],88%
same,growth at 1 µM,[36],83%
same,growth at 1 µM,[37],90%
same,growth at 1 µM,[38],72%
same,growth at 0.1 µM,[39],96%
